Consider twelve molecules from patent EP0686635A1, “Pyridylthiazolidinecarboxylic acid amide derivatives, their preparation and their therapeutic uses” (Sankyo Company Limited, priority 1991, dated 1993).

Assay [1] has as its system passive cutaneous anaphylaxis (PCA) in rats. The assay is described as follows: Inhibitory effect on passive cutaneous anaphylaxis (PCA) in rats. Format: in vivo. Conditions: dose 6.4 mg/kg p.o., 60 minutes before antigen challenge, exuded Evans Blue vs control group. Here is the method:
According to Mota's method [I. Mota, Immunology, 7, 681 - 699 (1964)], antiserum (256 times the PCA titer) of rat against egg albumin was prepared and diluted four times with physiological saline. Male SD rats (5 weeks old) were used as the test animals in groups, each containing 4 animals. The rats were sensitized by intradermal injection of 0.05 ml of the diluted antiserum solution in the dorsal position. 48 hours after this injection, a suspension of the test compound in an aqueous 0.5% w/v tragacanth solution was orally administered to the rats, which had been fasted for one day, and 60 minutes later they were injected in the caudal vein with 5 ml/kg body weight of physiological saline containing 0.4% w/v egg albumin and 1.0% w/v Evans Blue. 30 minutes after this last injection, the rats were sacrificed with carbon dioxide and the Evans Blue exuded in the dorsal intradermal portion was determined according to Harada's method (Harada et al., J. Pharm. Pharmac., 23, 218 - 219 (1971)].
The results achieved from the test groups which were treated with a test compound were evaluated to determine the inhibitory rate by comparison with the average amount of exuded dye in a control group, which was not given the test compound.
The inhibitory rate was calculated by the following equation. Inhibitory rate (%) = (1-B/A) x 100 [formula] A: amount of exuded dye in the control group B: amount of exuded dye in the test group.

Assay [2] relates to PAF-induced blood platelet aggregation. The assay is described as follows: Inhibitory effect in vitro against PAF-induced blood platelet aggregation. Format: cell-based. Conditions: Oryctolagus cuniculus; rabbit platelet rich plasma, stimulated with ℓ-C16:0 PAF (10⁻⁸ ∼ 3 x 10⁻⁸ M), 37°C; read-out: Platelet aggregation inhibition, IC₅₀. Here is the method:
Blood samples were obtained by cardiac puncture from a rabbit and one part by volume of each sample was immediately mixed with 0.1 part of a 3.8% w/v aqueous solution of sodium citrate. A platelet rich plasma (PRP) fraction was prepared by centrifuging the samples at 150 x G for 15 minutes at room temperature, and a platelet poor plasma (PPP) fraction was then prepared by further centrifugation at 1,000 x G for 15 minutes. The platelet count in the PRP was adjusted to 6 x 10⁵ per µℓ by the addition of an appropriate amount of the PPP fraction. According to the method reported by Born et al. [G.V.R. Born et al.: J. Physiol. 62, 67 - 68 (1962)], blood platelet aggregation was determined turbidimetrically in a 6-channel aggregometer (Hemetracer, NKB, Tokyo, Japan). Aliquots of the PRP (272 µℓ) were preincubated with 3 µℓ of a solution of the test compound in dimethyl sulphoxide for 1 minute, and then stimulated with ℓ-C16:0 PAF (at a final concentration of 10⁻⁸ ∼ 3 x 10⁻⁸ M) at 37°C with stirring (100 rpm). Changes in light transmission were monitored for 5 minutes. Vehicle (dimethyl sulphoxide) controls were tested simultaneously, and the inhibitory effects of the test compounds were assessed on the maximal aggregation. The IC₅₀ values were calculated by the method of least squares.

The test system of assay [3] is intracutaneous reaction in rats by PAF. The assay is described as follows: Inhibitory effect on intracutaneous reaction in rats by PAF. Format: in vivo. Conditions: dose 6.4 mg/kg p.o., 60 minutes before intradermal PAF, leaked Evans blue vs control group. Here is the method: Male SD rats (5 weeks old) were used as the test animals in groups, each containing 4 animals. Each rat was administered orally with a suspension of the test compound in a 0.5% w/v aqueous tragacanth solution. Sixty minutes after the administration, aqueous physiological saline containing 1.0% w/v Evans blue was injected into the tail vein in an amount of 5 ml/kg of the body weight. Immediately after the injection, 0.05 ml of a solution containing 2 µg/ml of PAF was intradermally injected into the back of the rat to induce a cutanous reaction. After 30 minutes, the rats were sacrificed using carbon dioxide, and the quantity of Evans blue which had leaked into the skin of the back was determined by the method of Harada et al. [J. Pharm. Pharmac., 23, 218 - 219 (1971)]. The inhibition rate of the compound was calculated by comparing the average amount of colourant which had leaked in the group treated with the test compound with that of control group to which no test compound was administered.
The inhibition rate was calculated according to the following equation: Inhibition rate (%) = (1 - B/A) x 100 [formula] where: A: Amount of colourant leaked in the control group B: Amount of colourant leaked in the group to which the test compound was administered.

The next assay addresses T1, PAF-receptor (Oryctolagus cuniculus, UniProt G1TEI7).
T1 construct: a precipitated blood platelet sample was obtained; from tissue; host or cells: rabbit blood platelets, membrane fraction from the 0.25 M / 1.5 M sucrose interface
Nature of the assay: Inhibitory effect on PAF-receptor binding. Also on record: species or system rabbit. An excerpt:
Blood samples were drawn from the heart of a rabbit. 1 part by volume of each sample was mixed immediately with 1/9 part of a 0.077 M solution of disodium ethylenediaminetetraacetate. After a similar procedure to that described in Experiment 2, a precipitated blood platelet sample was obtained. This blood platelet sample was washed, and, after repeated freesing and thawing to rupture the cells, it was placed on top of two layers consisting of 0.25 M and 1.5 M sucrose solutions. By centrifugation at 63,500 x G, for 2 hours at 4°C, the fraction obtained from the interface between the 0.25 M and 1.5 M sucrose solutions was collected and is regarded as a PAF-receptor membrane fraction. A receptor binding experiment was then conducted according to a method very similar to that reported by Hwang et al. [San-Bao Hwang et al.: J. Biol. Chem. 260, 15639 - 15645 (1985)]. The specific binding of ³H-PAF was measured using a Wattman GF/C filter. A test compound was dissolved in dimethyl sulphoxide and diluted 100 fold with a buffer solution containing 0.5% bovine serum albumin. Nine parts by volume of the solution, for a receptor binding experiment, was mixed with one part of the test compound solution prepared above. The percent inhibition of the specific binding was plotted against the log of the concentration of the test compound, and the 50% inhibitory concentration (IC₅₀) was calculated from the linear line connecting all the plotted points.

The mark [4] stands for this setting: rabbit platelet PAF-receptor membrane fraction, specific binding of ³H-PAF, read-out: Receptor binding inhibition, IC₅₀ (g/ml) (converted).

Values after ≈ are worked out from the molar mass of the structure shown. Where two headings read alike, the source gives them in different places.

T1 sequence (G1TEI7 1-342): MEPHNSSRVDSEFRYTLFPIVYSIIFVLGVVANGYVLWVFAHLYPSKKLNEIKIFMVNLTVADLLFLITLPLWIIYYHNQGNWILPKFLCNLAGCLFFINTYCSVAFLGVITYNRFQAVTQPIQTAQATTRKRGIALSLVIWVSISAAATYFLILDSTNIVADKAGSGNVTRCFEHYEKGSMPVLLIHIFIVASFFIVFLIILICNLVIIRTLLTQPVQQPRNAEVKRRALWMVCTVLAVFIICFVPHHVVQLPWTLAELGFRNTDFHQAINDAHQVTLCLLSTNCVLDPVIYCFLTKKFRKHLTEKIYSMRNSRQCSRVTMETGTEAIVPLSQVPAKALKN

In the case of `CN(CCOC(c1ccccc1)c1ccccc1)CCN(C)C(=O)[C@@H]1CSC(c2cccnc2)N1` (stereo partly drawn) [Example 1, (4R)-N-Methyl-N-{2-[N-(2-diphenylmethoxyethyl)-N-methylamino]ethyl}-2-(3-pyridyl)thiazolidine-4-carboxamide], the “Inhibitory rate (%)” value in assay [1] is 33%; in assay [3], 57%. The IC50 in assay [2] came to 0.063 µg/mL (≈ 0.128 µM).

In the case of `O=C([C@@H]1CSC(c2cccnc2)N1)N1CCN(CCOC(c2ccccc2)c2ccc(Cl)cc2)CC1` (some centres unmarked) [Example 4], the figures for the IC50 (in assay [2]; at PAF-receptor (setting [4])) were 0.085 µg/mL (≈ 0.162 µM) and 51.6 nM, respectively. Further, in assay [3], the “Inhibitory rate (%)” value is listed as 64%.

Take `O=C([C@@H]1CSC(c2cccnc2)N1)N1CCN(CCN2CCC(=C(c3ccccc3)c3ccccc3)CC2)CC1` (stereo partly drawn) [Example 5, (4R)-1-{2-[4-(Diphenylmethylene)-1-piperidinyl]ethyl}-4-[2-(3-pyridyl)thiazolidin-4-ylcarbonyl]piperazine]: the “Inhibitory rate (%)” value in assay [1] is recorded as 42%.

Consider `Cc1ccc(C(OCCN2CCN(C(=O)[C@@H]3CSC(c4cccnc4)N3)CC2)c2ccccc2)cc1` (some centres unmarked) [Example 6], for which the “Inhibitory rate (%)” value in assay [1] came out at 45%. Moreover, the IC50 in assay [2] is 0.055 µg/mL (≈ 0.109 µM); on PAF-receptor (setting [4]), 41.8 nM.

Consider `O=C([C@@H]1CSC(c2cccnc2)N1)N1CCN(CCOC(c2ccccc2)c2ccccc2)CC1` (stereo partly drawn) [Example 7, (4R)-1-(2-Diphenylmethoxyethyl)-4-[2-(3-pyridyl)thiazolidin-4-ylcarbonyl]piperazine], for which the figures for the IC50 (in assay [2]; at PAF-receptor) were 0.095 µg/mL (≈ 0.194 µM) and 51.2 nM, respectively. Besides, the “Inhibitory rate (%)” value in assay [3] is 70%.

On to `O=C([C@@H]1CSC(c2cccnc2)N1)N1CCN(CCOC(c2ccccc2)C2CCCCC2)CC1` (stereo partly drawn) [Example 11, (4R)-1-[2-(α-Cyclohexylbenzyloxy)ethyl]-4-[2-(3-pyridyl)thiazolidin-4-ylcarbonyl]piperazine], for which the results for the IC50 (in assay [2]; at PAF-receptor (setting [4])) were 0.072 µg/mL (≈ 0.146 µM) and 445 nM, respectively.

Consider `O=C([C@@H]1CSC(c2cccnc2)N1)N1CCCN(CCOC(c2ccc(F)cc2)c2ccc(F)cc2)CC1` (stereo partly drawn) [Example 12, (4R)-1-[2-Bis(4-fluorophenyl)methoxyethyl]-4-[2-(3-pyridyl)thiazolidin-4-ylcarbonyl]homopiperazine], for which the IC50 is 0.19 µg/mL (≈ 0.353 µM) in assay [2] and 390 nM on PAF-receptor.

In the case of `O=C([C@@H]1CSC(c2cccnc2)N1)N1CCCN(CCOC(c2ccccc2)c2ccccc2)CC1` (stereo partly drawn) [Example 13, (4R)-1-(2-Diphenylmethoxyethyl)-4-[2-(3-pyridyl)thiazolidin-4-ylcarbonyl]homopiperazine], the IC50 in assay [2] was 0.22 µg/mL (≈ 0.438 µM); at PAF-receptor, 279 nM.

Take `O=C([C@@H]1CSC(c2cccnc2)N1)N1CCN(CCOC(c2ccc(F)cc2)c2ccc(F)cc2)CC1` (stereo partly drawn) [Example 14, (4R)-1-[2-Bis(4-fluorophenyl)methoxyethyl]-4-[2-(3-pyridyl)thiazolidin-4-ylcarbonyl]piperazine]: the IC50 in assay [2] was 0.14 µg/mL (≈ 0.267 µM); on PAF-receptor, 19.1 nM. Moreover, in assay [3], the “Inhibitory rate (%)” value came to 47%.

With `O=C(NCCN1CCN2c3ccccc3Cc3ccccc3[C@@H]2C1)[C@@H]1CSC(c2cccnc2)N1` (stereo partly drawn) [Example 16, (4R)-N-{2-[(14bR)-1,2,3,4,10,14b-Hexahydrodibenzo[c,f]pyrazino[1,2-a]azepin-2-yl]ethyl}-2-(3-pyridyl)thiazolidine-4-carboxamide], the “Inhibitory rate (%)” value in assay [1] and in assay [3] was 62% each time.

Consider `O=C(NCCN1CCN2c3ccccc3Cc3ccccc3[C@H]2C1)[C@@H]1CSC(c2cccnc2)N1` (stereo partly drawn) [Example 17, (4R)-N-{2-[(14bS)-1,2,3,4,10,14b-Hexahydrodibenzo[c,f]pyrazino[1,2-a]azepin-2-yl]ethyl}-2-(3-pyridyl)thiazolidine-4-carboxamide], for which, in assay [1], the “Inhibitory rate (%)” value was 73%.

Consider `O=C(NCCN1CCN2c3ccc(F)cc3Cc3ccccc3[C@H]2C1)[C@@H]1CSC(c2cccnc2)N1` (stereo partly drawn) [Example 25, (4R)-N-{2-[(14bS)-8-Fluoro-1,2,3,4,10,14b-hexahydrodibenzo[c,f]pyrazino[1,2-a]azepin-2-yl]ethyl}-2-(3-pyridyl)thiazolidine-4-carboxamide], for which, in assay [1], the “Inhibitory rate (%)” value was 55%.
